The subject of one assay is Mycobacterium avium. As to the kind of experiment: Growth inhibition of Mycobacterium avium 2447. The class given is functional.
Assay [1] deals with Diacylglycerol acyltransferase/mycolyltransferase Ag85C (Mycobacterium tuberculosis, UniProt P9WQN9). As to the kind of experiment: Inhibition of Mycobacterium tuberculosis recombinant antigen 85C mycolyltransferase.

Structures are written as SMILES. ≈ marks a conversion by molar mass, not a printed value. Calls of active or inactive are those of the source. No cut-off for these calls is given here.

Chain of Diacylglycerol acyltransferase/mycolyltransferase Ag85C (P9WQN9 whole entry): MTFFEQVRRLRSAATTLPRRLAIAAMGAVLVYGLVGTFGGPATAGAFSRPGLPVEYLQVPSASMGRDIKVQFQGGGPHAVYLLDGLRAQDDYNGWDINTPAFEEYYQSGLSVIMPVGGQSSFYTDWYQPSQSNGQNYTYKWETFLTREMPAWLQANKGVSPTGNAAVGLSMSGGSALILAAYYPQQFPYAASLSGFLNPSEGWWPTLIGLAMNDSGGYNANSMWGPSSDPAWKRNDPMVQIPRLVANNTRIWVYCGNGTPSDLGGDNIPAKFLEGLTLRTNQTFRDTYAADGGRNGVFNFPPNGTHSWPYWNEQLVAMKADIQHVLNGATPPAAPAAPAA

`CCCCCCP(=O)(OCC)OCc1ccccc1Oc1ccccc1` (stereo not drawn) had an MIC against Mycobacterium avium of 260 µg/mL (≈ 690 µM). Moreover, the IC50 in assay [1] turned out to be 42.6 µM.

As to `CCCCCCCCCP(=O)(OCC)OCN1C(=O)c2ccccc2C1=O` (stereo not drawn), the minimum inhibitory concentration (MIC) against Mycobacterium avium is 84.5 µg/mL (≈ 214 µM).

On to `CCCCCCCCCCCCCCP(=O)(OCC)OCc1ccccc1Oc1ccccc1` (stereo not drawn), for which the half-maximal inhibitory concentration (IC50) in assay [1] was determined as 862 µM.

On to `CCCCP(=O)(OCC)OCN1C(=O)c2ccccc2C1=O` (stereo not drawn), for which, in the assay with Mycobacterium avium, the result was inactive.

`CCCCP(=O)(OCC)OCc1ccccc1Oc1ccccc1` (stereo not drawn) yielded a minimum inhibitory concentration (MIC) against Mycobacterium avium of 249 µg/mL (≈ 714 µM). Further, the concentration for half-maximal inhibition (IC50) in assay [1] was 2 µM.

On to `CCCCCCP(=O)(OCC)OCc1cc(OC)c(OC)c(OC)c1` (stereo not drawn), for which the IC50 in assay [1] was found to be 102 µM.

Consider `CCCCCCCP(=O)(OCC)OCc1ccccc1Oc1ccccc1` (stereo not drawn), for which it took 319 µg/mL (≈ 817 µM) to inhibit growth in the assay on Mycobacterium avium (MIC). In addition, in assay [1], the IC50 came out at 21 µM.

Turning to `CCCCCCCP(=O)(OCC)OCN1C(=O)c2ccccc2C1=O` (stereo not drawn), the result in the assay on Mycobacterium avium was inactive.

Take `CCCCP(=O)(OCC)OCCN1C(=O)c2ccccc2C1=O` (stereo not drawn): in the assay on Mycobacterium avium, the MIC amounted to 406 µg/mL (≈ 1200 µM).

In turn, `CC[C@H]1OC(=O)[C@H](C)[C@@H](O[C@H]2C[C@@](C)(OC)[C@@H](O)[C@H](C)O2)[C@H](C)[C@@H](O[C@@H]2O[C@H](C)C[C@H](N(C)C)[C@H]2O)[C@](C)(OC)C[C@@H](C)C(=O)[C@H](C)[C@@H](O)[C@]1(C)O` [CLARITHROMYCIN] gave an MIC with Mycobacterium avium of 0.2 µg/mL (≈ 0.267 µM).

The compound `CCCCCCCCCP(=O)(OCC)OCc1ccccc1Oc1ccccc1` (stereo not drawn) returned an MIC against Mycobacterium avium of 188 µg/mL (≈ 450 µM). Further, in assay [1], the IC50 came out at 14.8 µM.

For the compound `CCCCCCCCCP(=O)(OCC)OCCN1C(=O)c2ccccc2C1=O` (stereo not drawn), the result with Mycobacterium avium was inactive.

With `CCOP(=O)(O)CCCCN1C(=O)c2ccccc2C1=O`, in assay [1], the IC50 turned out to be 110 µM.

Take `CCOP(=O)(O)CCc1ccccc1`: the IC50 in assay [1] turned out to be 225 µM.

The values above are taken from ChEMBL document CHEMBL1144482, “Design, synthesis, biochemical evaluation and antimycobacterial action of phosphonate inhibitors of antigen 85C, a crucial enzyme involved in biosynthesis of the mycobacterial cell wall” (Eur J Med Chem, 2007).
